The test system of series [1] is Mahlavu cells. Description: cells. The settings on record: Homo sapiens, 48 h; for viability at 100 µM: read-out: percentage of viable Mahlavu cells (cell viability); for IC50: read-out: IC50 for Mahlavu cells.
Protocol: (§1) The cytotoxic activities of the newly synthesized amido-substituted triazolopyrrolo [2,1-c][1,4]benzodiazepines PBDT-7a–k were tested against Mahlavu and MRC-5 cells. After incubation of the cells with the compounds at concentrations of 3.12, 6.25, 12.50, 25.0, 50.0 and 100 µM for 48 h, the cell growth and viability were assessed by using CCK-8 assay.
(§2) Human hepatocellular carcinoma (Mahlavu) epithelial cells were used for cell culture experiments. Cells were cultured with 90% Dulbecco’s modified Eagle’s medium with 10% fetal bovine serum, 100 U/mL penicillin, and 100 μg/mL streptomycin. The cells were placed in an incubator to maintain high humidity, a temperature of 37 °C, and 5% CO2 for cell culture experiments. Cells were routinely sub-passaged in a 1:4 to 1:6 split using 0.25% trypsin.
(§3) The cell viability was determined using a CCK-8 assay following the manufacturer’s instructions. Mahlavu cells and MRC-5 cells were seeded in 96-well plates and allowed to attach overnight at 37 °C. Cells were treated with PBDT-7a–k in 0.1% FBS MEM or DMEM (100 μL/well), and the cells were incubated for 48 h in a humidified atmosphere. After the incubation period, 10 μL of cell Counting Kit-8 solution was added to the medium, and the cells were incubated for an additional 1–4 h in the incubator. The absorbance at 450 nm was then measured using a microplate reader. The IR was calculated using the following equation: IR = [1 − (A value for the treated samples − A value for the blank samples)/(A value for the control samples − A value for the blank samples)] × 100%. The assays were performed in triplicate and repeated at least twice.
(§4) Mahlavu cells were treated with PBDT-7 series compounds for 48 h, and survival was assessed using a CCK-8 assay (mean ± SEM, n = 6).
Another series is described as follows: in vitro. The settings on record: human.
Series [2] deals with Mahlavu cells. The settings on record: 48 h, CCK-8; for effect on viability of Mahlavu cells, in words: 100 µM.
Protocol: as §1, §2, §3, §4
The test system of the next series is MRC-5 cells. Description: CCK-8 cytotoxicity assay, MRC-5 cells. The settings on record: 48 h. For orientation: Tetrazolium assays rely on reduction of a dye to a coloured formazan, in cell work by metabolically active cells.

Results on eleven molecules are retold here after article PMC6269039, “Synthesis and Cytotoxicity Testing of New Amido-Substituted Triazolopyrrolo[2,1-c][1,4]benzodiazepine (PBDT) Derivatives” (Molecules, 2012).

Structures are written as SMILES.

A word on the melting point: it is the temperature, or range, at which the solid turns liquid. As usually defined, the viability is the share of living cells, or the viability signal relative to a control. A word on the IC50: it is the midpoint of a concentration-inhibition curve.

Protocol for MRC-5 cells: (§5) After incubation of the cells with the compounds at concentrations of 3.12, 6.25, 12.50, 25.0, 50.0 and 100 µM for 48 h, the cell growth and viability were assessed by using CCK-8 assay.
(§6) Human fibroblast cells (MRC-5) cells were used for cell culture experiments. Cells were cultured with 90% Eagle’s minimum essential medium with 2 mM L-glutamine and Earle’s BSS adjusted to contain 1.5 g/L sodium bicarbonate, 0.1 mM non-essential amino acids, 1.0 mM sodium pyruvate with 10% fetal bovine serum, 100 U/mL penicillin, and 100 μg/mL streptomycin. The cells were placed in an incubator to maintain high humidity, 37 °C, and 5% CO2 for the cell culture experiments. Cells were routinely sub-passaged in a 1:2 to 1:5 split using 0.25% trypsin.
(§7) The cell viability was determined using a CCK-8 assay following the manufacturer’s instructions. Mahlavu cells and MRC-5 cells were seeded in 96-well plates and allowed to attach overnight at 37 °C. […] After the incubation period, 10 μL of cell Counting Kit-8 solution was added to the medium, and the cells were incubated for an additional 1–4 h in the incubator. The absorbance at 450 nm was then measured using a microplate reader. The IR was calculated using the following equation: IR = [1 − (A value for the treated samples − A value for the blank samples)/(A value for the control samples − A value for the blank samples)] × 100%. The assays were performed in triplicate and repeated at least twice.
Protocol for in vitro: as §5, §6, §7

In turn, `CC(C)(C)C(=O)Nc1nnc2n1-c1ccccc1C(=O)N1CCC[C@@H]21` [PBDT-7a, ((13aS)-9-Oxo-11,12,13,13a-tetrahydro-9H-benzo[e]pyrrolo[1,2-a][1,2,4]triazolo[3,4-c][1,4]diazepin-3-yl)pivalamide] gave a melting point of 213 to 215 °C. Besides, the viability at 100 µM in the series with Mahlavu cells [1] was more than 75%. The molecule also gave a viability at 48 h, 100 µM in the series “in vitro” of more than 75%.

With `O=C(Nc1nnc2n1-c1ccccc1C(=O)N1CCC[C@@H]21)c1ccccc1` [PBDT-7b, N-((13aS)-9-Oxo-11,12,13,13a-tetrahydro-9H-benzo[e]pyrrolo[1,2-a][1,2,4]triazolo[3,4-c][1,4]diazepin-3-yl)benzamide], the melting point is 173 to 175 °C. Also, in the series on Mahlavu cells [1], the viability at 100 µM was more than 75%. The viability at 48 h, 100 µM in the series “in vitro” is more than 75%.

On to `O=C(Nc1nnc2n1-c1ccccc1C(=O)N1CCC[C@@H]21)c1ccccc1F` [PBDT-7c, 2-Fluoro-N-((13aS)-9-oxo-11,12,13,13a-tetrahydro-9H-benzo[e]pyrrolo[1,2-a][1,2,4]triazolo[3,4-c][1,4]diazepin-3-yl)benzamide], for which, in the series on Mahlavu cells [2], the “effect on viability of Mahlavu cells, in words” value is reported as “little effect”.

On to `O=C(Nc1nnc2n1-c1ccccc1C(=O)N1CCC[C@@H]21)c1cccc(F)c1` [PBDT-7d, 3-Fluoro-N-((13aS)-9-oxo-11,12,13,13a-tetrahydro-9H-benzo[e]pyrrolo[1,2-a][1,2,4]triazolo[3,4-c][1,4]diazepin-3-yl)benzamide], for which the melting point was in the range of 159 to 160 °C. The viability at 100 µM with Mahlavu cells [1] is approximately 61%.

As to `O=C(Nc1nnc2n1-c1ccccc1C(=O)N1CCC[C@@H]21)c1ccc(F)cc1` [PBDT-7e, 4-Fluoro-N-((13aS)-9-oxo-11,12,13,13a-tetrahydro-9H-benzo[e]pyrrolo[1,2-a][1,2,4]triazolo[3,4-c][1,4]diazepin-3-yl)benzamide], the “effect on viability of Mahlavu cells, in words” value in the series with Mahlavu cells [2] was “little effect”.

The molecule `COc1cccc(C(=O)Nc2nnc3n2-c2ccccc2C(=O)N2CCC[C@@H]32)c1` [PBDT-7f, 3-Methoxy-N-((13aS)-9-oxo-11,12,13,13a-tetrahydro-9H-benzo[e]pyrrolo[1,2-a][1,2,4]triazolo[3,4-c][1,4]diazepin-3-yl)benzamide] returned a melting point of 168 to 170 °C. Also, the viability at 100 µM in the series with Mahlavu cells [1] was determined as 37%.

`N#Cc1cccc(C(=O)Nc2nnc3n2-c2ccccc2C(=O)N2CCC[C@@H]32)c1` [PBDT-7g, 3-Cyano-N-((13aS)-9-oxo-11,12,13,13a-tetrahydro-9H-benzo[e]pyrrolo[1,2-a][1,2,4]triazolo[3,4-c] [1,4]diazepin-3-yl)benzamide] displayed a melting point of 245 to 246 °C. For the same molecule, in the series on Mahlavu cells [1], the concentration for half-maximal inhibition (IC50) is 50 µM and the viability at 100 µM stood at 36%.

On to `O=C(Nc1nnc2n1-c1ccccc1C(=O)N1CCC[C@@H]21)c1cccc(Cl)c1` [PBDT-7h, 3-Chloro-N-((13aS)-9-oxo-11,12,13,13a-tetrahydro-9H-benzo[e]pyrrolo[1,2-a][1,2,4]triazolo[3,4-c][1,4]diazepin-3-yl)benzamide], for which the “survival rate of Mahlavu cells” value in the series with Mahlavu cells [2] (50 µM) is listed as “below 50%”. The “inhibition of Mahlavu cells, in words” value in the series with Mahlavu cells [2] is “potent inhibitor”. Besides, in the series with MRC-5 cells, the “toxicity to MRC-5 (normal) cells, in words” value is recorded as “highly toxic”.

Consider `O=C(Nc1nnc2n1-c1ccccc1C(=O)N1CCC[C@@H]21)c1cccc(C(F)(F)F)c1` [PBDT-7i, N-((13aS)-9-Oxo-11,12,13,13a-tetrahydro-9H-benzo[e]pyrrolo[1,2-a][1,2,4]triazolo[3,4-c][1,4]diazepin-3-yl)-3-(trifluoromethyl)benzamide], for which the “inhibition of Mahlavu cells, in words” value in the series on Mahlavu cells [2] is on record as “selectively inhibit the growth”. Further, in the series with Mahlavu cells [1], the IC50 amounted to 50 µM and the viability at 100 µM was 2%. Further, the “toxicity to MRC-5 (normal) cells, in words” value in the series with MRC-5 cells was “low-toxic”.

Turning to `O=C(Nc1nnc2n1-c1ccccc1C(=O)N1CCC[C@@H]21)c1cccnc1` [PBDT-7j, N-((13aS)-9-Oxo-11,12,13,13a-tetrahydro-9H-benzo[e]pyrrolo[1,2-a][1,2,4]triazolo[3,4-c][1,4]diazepin-3-yl)nicotinamide], the melting point is 225 °C. The viability at 100 µM in the series with Mahlavu cells [1] was more than 75%. In addition, the viability at 48 h, 100 µM in the series “in vitro” was more than 75%.

`O=C(Nc1nnc2n1-c1ccccc1C(=O)N1CCC[C@@H]21)c1cccs1` [PBDT-7k, N-((13aS)-9-Oxo-11,12,13,13a-tetrahydro-9H-benzo[e]pyrrolo[1,2-a][1,2,4]triazolo[3,4-c][1,4]diazepin-3-yl)thiophene-2-carboxamide] came in with a melting point of 185 to 186 °C. Further, the viability at 100 µM in the series with Mahlavu cells [1] was more than 75%. Further, the viability at 48 h, 100 µM in the series “in vitro” was more than 75%.
